Laboratory results as given in patent publication US8455544B2, “Synthetic triterpenoids and methods of use in the treatment of disease” (Reata Pharmaecuticals, Inc., priority 2008, dated 2013).

Key:
[1] = test system: circulating endothelial cells (CECs); assay: Circulating endothelial cells (CECs) and iNOS-positive CECs, Phase II study; type: in vivo, human
Source text: The mean number of CECs in cells/mL is shown for intent-to-treat (ITT) and elevated baseline groups, both before and after the 28 day RTA treatment. The reduction for the Intent-to-treat group was approximately 20%, and the reduction in the elevated baseline group (>5 CECs/ml) was approximately 33%. The fraction of iNOS-positive CECs was reduced approximately 29%.
CECs were isolated from whole blood by using CD146 Ab (an antibody to the CD146 antigen that is expressed on endothelial cells and leukocytes). After CEC isolation, a FITC (fluorescein isothiocyanate) conjugated CD105 Ab (a specific antibody for endothelial cells) is used to identify CECs using the CellSearch™ system. A fluorescent conjugate of CD45 Ab was added to stain the leukocytes, and these were then gated out. For a general overview of this method, see Blann et al., (2005), which is incorporated herein by reference in its entirety. CEC samples were also assessed for the presence of iNOS by immunostaining.

[2] = test system: ischemia-reperfusion induced renal damage; assay: Mouse model of ischemic acute renal failure (ischemia-reperfusion); type: in vivo
Description: FIGS. 1a-d—RTA 402 reduces renal damage following ischemia-reperfusion. Mice were administered RTA 402 at 2 mg/kg or simply the vehicle (sesame oil) daily by oral gavage beginning on […]. On Day 0, a clamp was placed on the left renal artery for 17 minutes and then removed to induce ischemia-reperfusion. (FIG. 1a) On Day 1, blood was collected from animals that were subjected to clamping and “sham” control animals that underwent surgery without clamping of the renal artery. Blood urea nitrogen (BUN) levels were measured as a surrogate for renal damage. (FIGS. 1b-d) Sections of kidneys from RTA 402-treated or vehicle-treated mice were scored for histological damage (FIGS. 1b & 1d) and inflammation (FIG. 1c). (FIG. 1d) Black arrows (vehicle group) show two of many severely damaged tubules in the outer medulla. Red arrows (RTA 402 group) show two of many undamaged tubules in the outer medulla.
In a mouse model of ischemic acute renal failure, the renal artery is clamped for approximately twenty minutes. After this time, the clamp is removed and the kidney is reperfused with blood. Ischemia-reperfusion results in renal damage and decreased renal function which can be assessed by blood urea nitrogen (BUN) levels, which become elevated following renal damage. As shown in FIGS. 1a-d, surgically-induced ischemia-reperfusion increased BUN levels by approximately 2-fold.

[3] = test system: patients with diabetic nephropathy; assay: Phase II clinical trial in patients with diabetic nephropathy (type 2 diabetes with CKD); type: in vivo, human
Description: Serum creatinine has also been measured in patients with chronic kidney disease (CKD) enrolled in an open label Phase II clinical trial of RTA 402. These patients received RTA 402 once daily at three dose levels, 25 mg, 75 mg and 150 mg, for a total of 28 days.
A primary outcome measure for this study is determining the effects of RTA 402 administered orally at the three dose strengths on the glomerular filtration rate (as estimated by the MDRD formula) in patients with diabetic nephropathy.
Secondary outcome measures include: (1) an evaluation of the safety and tolerability of oral RTA 402 administered orally at the three different doses, in this patient population; (2) an evaluation of the effects of RTA 402 administered orally at the three dose strengths on the serum creatinine level, creatinine clearance, and urine albumin/creatinine ratio in patients with diabetic nephropathy; (3) an evaluation of the effects of RTA 402 administered orally at the three dose strengths on hemoglobin A1c in all patients enrolled and on insulin response by the hyperinsulinemic euglycemic clamp test in patients enrolled at only one of the study centers; (4) an evaluation of the effects of RTA 402 at the three different doses on a panel of markers of inflammation, renal injury, oxidative stress, and endothelial cell dysfunction.
The patient population selected for this study all had type 2 diabetes with CKD. Most had been diagnosed with poor glycemic control for two decades. CKD was established through elevated serum creatinine (SCr) levels. Most of the patients had been diagnosed with cardiovascular disease (CVD) and most were receiving standard of care (SOC) treatment for diabetes, CKD and CVD, (e.g., insulin, ACEI/ARB, β-blocker, diuretic, and statin). The baseline demographic can be summarized as follows:
The patient inclusion criteria were as follows: (1) diagnosis of type 2 diabetes; (2) serum creatinine in women 1.3-3.0 mg/dL (115-265 μmol/L), inclusive, and in men 1.5-3.0 mg/dL (133-265 μmol/L), inclusive; (3) patient must agree to practice effective contraception; (4) patient must have a negative urine pregnancy test within 72 hours prior to the first dose of study medication; (5) patient is willing and able to cooperate with all aspects of the protocol and is able to communicate effectively; (6) patient is willing and able to provide written informed consent to participate in this clinical study. […]

[4] = test system: IFNγ-induced NO production in RAW264.7 macrophages; assay: Suppression of IFNγ-induced NO production (Griess reagent system); type: cell-based; conditions: Mus musculus; RAW264.7, pre-treated 2 hours, then 20 ng/ml IFNγ for 24 hours

SMILES: COC(=O)[C@]12CCC(C)(C)C[C@H]1[C@H]1C(=O)C=C3[C@@]4(C)C=C(C#N)C(=O)C(C)(C)[C@@H]4CC[C@@]3(C)[C@]1(C)CC2 [RTA 402, methyl-2-cyano-3,12-dioxooleana-1,9-dien-28-oic acid]
- Reduction of mean number of CECs ([1]; 28 days, elevated baseline group (>5 CECs/ml)): approximately 33%
- Reduction in CECs ([1]; 28 days, elevated baseline group, n=14, p=0.02): 40%
- Reduction of the fraction of iNOS-positive CECs ([1]; 28 days, immunostaining): approximately 29%
- Reduction of mean number of CECs ([1]; 28 days, intent-to-treat group): approximately 20%
- Reduction in CECs ([1]; 28 days, intent-to-treat group, n=20): 27%
- Patients with a normal level for CECs post-treatment ([1]; of the elevated baseline group, n=14): nine
- Normalization of CEC values (≦5 cells/mL), patients ([1]; patients with elevated baseline): 11 out of the 19
- Histological measures of kidney damage and inflammation ([2]; 2 mg/kg orally once daily): significantly improved
- BUN levels relative to vehicle-treated animals ([2]; 2 mg/kg orally once daily beginning two days prior to surgery, p<0.01): significantly reduced
- A1c reduction ([3]; 28 days, elevated baseline (≧7.0 at baseline), n=16): 0.50
- Hemoglobin % A1c reduction ([3]; 28 days, elevated baseline (≧7.0 at baseline), n=35): 0.50 % A1c
- A1c reduction ([3]; 28 days, intent-to-treat, n=21, on top of standard of care): 0.34
- Hemoglobin % A1c reduction ([3]; 28 days, intent-to-treat, n=56): approximately 0.25 % A1c
- GFR increase, response rate ([3]; 28 days, n=22): 86%
- GFR improvement ([3]; 28 days, patients with Stage 4 renal disease): > 30%
- Mean % A1c reduction ([3]; 28 days, patients with advanced (Stage 4) renal disease (GFR 15-29 ml/min)): approximately 0.77 % A1c
- Eight measures of renal function and status ([3]; serum creatinine based eGFR, creatinine clearance, BUN, serum phosphorus, serum uric acid, Cystatin C, Adiponectin, Angiotensin II): improve significantly
- IC50 [4]: 2.2 nM
